Article PMC5834492, “Antimycobacterial drug discovery using Mycobacteria-infected amoebae identifies anti-infectives and new molecular targets” (Scientific Reports, 2018)

system: M. marinum GFP; assay type: cell-based, Mycobacterium marinum; conditions: 10 µM; antibiotic assay

| SMILES | M. marinum GFP normalised growth, control=1.00, mean |
| --- | --- |
| Cc1ccc2nc(C(F)(F)F)c(C(=O)NCc3ccc4c(c3)OCO4)n2c1 [GSK1829732A] | 0.06 |
| Cc1ccc2nc(C(F)(F)F)c(C(=O)NCc3cccc(OC(C)C)c3)n2c1 [GSK1829733A] | 0.09 |
| Cc1ccc2nc(C(F)(F)F)c(C(=O)NCc3cc(Cl)cc(Cl)c3)n2c1 [GSK1829736A] | 0.04 |
| Cc1ccc2nc(C)c(C(=O)NCC(C)C)n2c1 [GSK1829816A] | 0.20 |
| Cc1ccc2nc(C)c(C(=O)NCc3ccco3)n2c1 [GSK1829819A] | 0.08 |
| CCN(Cc1ccc2c(c1)OCO2)C(=O)CSc1nc(NC)c2ccccc2n1 [GSK1859936A] | 0.54 |
| CNc1nc(SCC(=O)N(C)Cc2ccc(Cl)s2)nc2ccccc12 [GSK1925843A] | 0.70 |
| Clc1ccc(CCNc2cc(-c3ccccc3)nc3ncnn23)cc1 [GSK1955236A] | 0.66 |

system: Mtb H37Rv; parameters: method as in Sorrentino et al, 2015; conditions: ref Sorrentino et al, 2015; cited from earlier work

| SMILES | Extracellular MIC90 [µM] |
| --- | --- |
| Cc1ccc2nc(C(F)(F)F)c(C(=O)NCc3ccc4c(c3)OCO4)n2c1 [GSK1829732A] | 1.1 |
| Cc1ccc2nc(C(F)(F)F)c(C(=O)NCc3cccc(OC(C)C)c3)n2c1 [GSK1829733A] | 2.1 |
| Cc1ccc2nc(C(F)(F)F)c(C(=O)NCc3cc(Cl)cc(Cl)c3)n2c1 [GSK1829736A] | 0.9 |
| Cc1ccc2nc(C)c(C(=O)NCC(C)C)n2c1 [GSK1829816A] | 7.7 |
| Cc1ccc2nc(C)c(C(=O)NCc3ccco3)n2c1 [GSK1829819A] | 1.3 |
| CCN(Cc1ccc2c(c1)OCO2)C(=O)CSc1nc(NC)c2ccccc2n1 [GSK1859936A] | 2.8 |
| CNc1nc(SCC(=O)N(C)Cc2ccc(Cl)s2)nc2ccccc12 [GSK1925843A] | 5.6 |
| Clc1ccc(CCNc2cc(-c3ccccc3)nc3ncnn23)cc1 [GSK1955236A] | 1.5 |

system: M. marinum in A. castellanii; assay type: cell-based, Mycobacterium marinum; conditions: 10 µM

| SMILES | A. castellanii / M. marinum normalised growth, control=1.00, mean | Hits A. castellanii/M. marinum assay True/False | A. castellanii/M. marinum normalised growth, control = 1.00, mean |
| --- | --- | --- | --- |
| Cc1ccc2nc(C(F)(F)F)c(C(=O)NCc3ccc4c(c3)OCO4)n2c1 [GSK1829732A] | 0.56 | FALSE | – |
| Cc1ccc2nc(C(F)(F)F)c(C(=O)NCc3cccc(OC(C)C)c3)n2c1 [GSK1829733A] | 0.68 | – | – |
| Cc1ccc2nc(C(F)(F)F)c(C(=O)NCc3cc(Cl)cc(Cl)c3)n2c1 [GSK1829736A] | 0.60 | FALSE | – |
| Cc1ccc2nc(C)c(C(=O)NCC(C)C)n2c1 [GSK1829816A] | 1.01 | – | – |
| Cc1ccc2nc(C)c(C(=O)NCc3ccco3)n2c1 [GSK1829819A] | 0.66 | FALSE | – |
| CCN(Cc1ccc2c(c1)OCO2)C(=O)CSc1nc(NC)c2ccccc2n1 [GSK1859936A] | 1.03 | – | – |
| CNc1nc(SCC(=O)N(C)Cc2ccc(Cl)s2)nc2ccccc12 [GSK1925843A] | 1.12 | FALSE | 1,12 |
| Clc1ccc(CCNc2cc(-c3ccccc3)nc3ncnn23)cc1 [GSK1955236A] | 1.32 | – | – |

system: Mtb H37Rv in THP-1; parameters: method as in Sorrentino et al, 2015; conditions: Mtb H37Rv-infected THP1 cells; ref Sorrentino et al, 2015; cited from earlier work

| SMILES | Intracelullar MIC90 in THP-1 [µM] |
| --- | --- |
| Cc1ccc2nc(C(F)(F)F)c(C(=O)NCc3ccc4c(c3)OCO4)n2c1 [GSK1829732A] | 1.85 |
| Cc1ccc2nc(C(F)(F)F)c(C(=O)NCc3cc(Cl)cc(Cl)c3)n2c1 [GSK1829736A] | 0.61 |
| Cc1ccc2nc(C)c(C(=O)NCc3ccco3)n2c1 [GSK1829819A] | 0.61 |
| CNc1nc(SCC(=O)N(C)Cc2ccc(Cl)s2)nc2ccccc12 [GSK1925843A] | 16.65 |

same assay, conditions: THP1 / Mtb H37Rv infection assay; ref Sorrentino et al, 2015; cited from earlier work

| SMILES | Intracelullar MIC90 in THP-1 [µM] |
| --- | --- |
| Cc1ccc2nc(C(F)(F)F)c(C(=O)NCc3ccc4c(c3)OCO4)n2c1 [GSK1829732A] | 1.85 |
| Cc1ccc2nc(C(F)(F)F)c(C(=O)NCc3cccc(OC(C)C)c3)n2c1 [GSK1829733A] | 1.85 |
| Cc1ccc2nc(C(F)(F)F)c(C(=O)NCc3cc(Cl)cc(Cl)c3)n2c1 [GSK1829736A] | 0.61 |
| Cc1ccc2nc(C)c(C(=O)NCC(C)C)n2c1 [GSK1829816A] | 16.65 |
| Cc1ccc2nc(C)c(C(=O)NCc3ccco3)n2c1 [GSK1829819A] | 0.61 |
| CCN(Cc1ccc2c(c1)OCO2)C(=O)CSc1nc(NC)c2ccccc2n1 [GSK1859936A] | 16.65 |
| CNc1nc(SCC(=O)N(C)Cc2ccc(Cl)s2)nc2ccccc12 [GSK1925843A] | 16.65 |
| Clc1ccc(CCNc2cc(-c3ccccc3)nc3ncnn23)cc1 [GSK1955236A] | 1.85 |

same assay, conditions: ratio; ref Sorrentino et al, 2015; cited from earlier work

| SMILES | Extracellular MIC90/ Inracellular MIC90 |
| --- | --- |
| Cc1ccc2nc(C(F)(F)F)c(C(=O)NCc3ccc4c(c3)OCO4)n2c1 [GSK1829732A] | 0.59 |
| Cc1ccc2nc(C(F)(F)F)c(C(=O)NCc3cccc(OC(C)C)c3)n2c1 [GSK1829733A] | 1.13 |
| Cc1ccc2nc(C(F)(F)F)c(C(=O)NCc3cc(Cl)cc(Cl)c3)n2c1 [GSK1829736A] | 1.47 |
| Cc1ccc2nc(C)c(C(=O)NCC(C)C)n2c1 [GSK1829816A] | 0.46 |
| Cc1ccc2nc(C)c(C(=O)NCc3ccco3)n2c1 [GSK1829819A] | 2.13 |
| CCN(Cc1ccc2c(c1)OCO2)C(=O)CSc1nc(NC)c2ccccc2n1 [GSK1859936A] | 0.17 |
| CNc1nc(SCC(=O)N(C)Cc2ccc(Cl)s2)nc2ccccc12 [GSK1925843A] | 0.34 |
| Clc1ccc(CCNc2cc(-c3ccccc3)nc3ncnn23)cc1 [GSK1955236A] | 0.81 |

system: D. discoideum GFP-ABD; conditions: 10 µM

| SMILES | D. discoideum GFP-ABD normalised growth, control = 1.00, mean | D. discoideum GFP-ABD normalised growth, control=1.00, mean |
| --- | --- | --- |
| Cc1ccc2nc(C(F)(F)F)c(C(=O)NCc3ccc4c(c3)OCO4)n2c1 [GSK1829732A] | 1,00 | 1.00 |
| Cc1ccc2nc(C(F)(F)F)c(C(=O)NCc3cccc(OC(C)C)c3)n2c1 [GSK1829733A] | – | 1.05 |
| Cc1ccc2nc(C(F)(F)F)c(C(=O)NCc3cc(Cl)cc(Cl)c3)n2c1 [GSK1829736A] | – | 0.93 |
| Cc1ccc2nc(C)c(C(=O)NCC(C)C)n2c1 [GSK1829816A] | – | 1.03 |
| Cc1ccc2nc(C)c(C(=O)NCc3ccco3)n2c1 [GSK1829819A] | 1,08 | 1.08 |
| CCN(Cc1ccc2c(c1)OCO2)C(=O)CSc1nc(NC)c2ccccc2n1 [GSK1859936A] | – | 1.00 |
| CNc1nc(SCC(=O)N(C)Cc2ccc(Cl)s2)nc2ccccc12 [GSK1925843A] | 1,10 | 1.10 |
| Clc1ccc(CCNc2cc(-c3ccccc3)nc3ncnn23)cc1 [GSK1955236A] | – | 0.93 |

system: M. marinum in BV2 microglial cells; assay type: cell-based, Mycobacterium marinum; conditions: not given

| SMILES | IC50 [µM] |
| --- | --- |
| Cc1ccc2nc(C(F)(F)F)c(C(=O)NCc3ccc4c(c3)OCO4)n2c1 [GSK1829732A] | 3.52 |
| Cc1ccc2nc(C(F)(F)F)c(C(=O)NCc3cccc(OC(C)C)c3)n2c1 [GSK1829733A] | 3.35 |
| Cc1ccc2nc(C(F)(F)F)c(C(=O)NCc3cc(Cl)cc(Cl)c3)n2c1 [GSK1829736A] | 2.21 |
| Cc1ccc2nc(C)c(C(=O)NCC(C)C)n2c1 [GSK1829816A] | 4.09 |
| Cc1ccc2nc(C)c(C(=O)NCc3ccco3)n2c1 [GSK1829819A] | 3.9 |
| CCN(Cc1ccc2c(c1)OCO2)C(=O)CSc1nc(NC)c2ccccc2n1 [GSK1859936A] | 4.14 |
| CNc1nc(SCC(=O)N(C)Cc2ccc(Cl)s2)nc2ccccc12 [GSK1925843A] | 3.83 |
| Clc1ccc(CCNc2cc(-c3ccccc3)nc3ncnn23)cc1 [GSK1955236A] | 5.69 |

same assay, conditions: 10 µM

| SMILES | BV2 / M. marinum normalised growth, control=1.00, mean | hit in BV2/M. marinum assay True/False |
| --- | --- | --- |
| Cc1ccc2nc(C(F)(F)F)c(C(=O)NCc3ccc4c(c3)OCO4)n2c1 [GSK1829732A] | 0.34 | TRUE |
| Cc1ccc2nc(C(F)(F)F)c(C(=O)NCc3cccc(OC(C)C)c3)n2c1 [GSK1829733A] | 0.69 | – |
| Cc1ccc2nc(C(F)(F)F)c(C(=O)NCc3cc(Cl)cc(Cl)c3)n2c1 [GSK1829736A] | 0.41 | TRUE |
| Cc1ccc2nc(C)c(C(=O)NCC(C)C)n2c1 [GSK1829816A] | 0.61 | – |
| Cc1ccc2nc(C)c(C(=O)NCc3ccco3)n2c1 [GSK1829819A] | 0.37 | TRUE |
| CCN(Cc1ccc2c(c1)OCO2)C(=O)CSc1nc(NC)c2ccccc2n1 [GSK1859936A] | 0.63 | – |
| CNc1nc(SCC(=O)N(C)Cc2ccc(Cl)s2)nc2ccccc12 [GSK1925843A] | 0.43 | TRUE |
| Clc1ccc(CCNc2cc(-c3ccccc3)nc3ncnn23)cc1 [GSK1955236A] | 0.80 | – |

system: M. marinum luxCDABE; assay type: cell-based, Mycobacterium marinum; conditions: 10 µM

| SMILES | M. marinum luxCDABE normalised growth, control = 1.00, mean | M. marinum luxCDABE normalised growth, control=1.00, mean |
| --- | --- | --- |
| Cc1ccc2nc(C(F)(F)F)c(C(=O)NCc3ccc4c(c3)OCO4)n2c1 [GSK1829732A] | 0,00 | 0.00 |
| Cc1ccc2nc(C(F)(F)F)c(C(=O)NCc3cccc(OC(C)C)c3)n2c1 [GSK1829733A] | – | 0.00 |
| Cc1ccc2nc(C(F)(F)F)c(C(=O)NCc3cc(Cl)cc(Cl)c3)n2c1 [GSK1829736A] | 0,00 | 0.00 |
| Cc1ccc2nc(C)c(C(=O)NCC(C)C)n2c1 [GSK1829816A] | – | 0.08 |
| Cc1ccc2nc(C)c(C(=O)NCc3ccco3)n2c1 [GSK1829819A] | 0,00 | 0.00 |
| CCN(Cc1ccc2c(c1)OCO2)C(=O)CSc1nc(NC)c2ccccc2n1 [GSK1859936A] | – | 0.07 |
| CNc1nc(SCC(=O)N(C)Cc2ccc(Cl)s2)nc2ccccc12 [GSK1925843A] | 0,00 | 0.00 |
| Clc1ccc(CCNc2cc(-c3ccccc3)nc3ncnn23)cc1 [GSK1955236A] | – | 0.00 |
